The values that follow come from patent publication WO2023231996A1, “Crystal forms of hydroxamic acid ester compound and salt thereof, and preparation method” (Shenzhen Chipscreen Biosciences Co Ltd, priority 2022, dated 2023).

The nature of data set [1]: Crystal form by XRPD after DVS. In kind it is physicochemical. The conditions noted are these: humidity 50%-95%-0%-50%.
Data set [2] can be described thus: Hygroscopicity by dynamic moisture adsorption and desorption (DVS). The format is physicochemical. To be noted: humidity 50%-95%-0%-50%.
The nature of data set [3]: Solid-state stability by XRPD under stress, accelerated and room-temperature conditions. In kind it is physicochemical. The conditions noted are these: high temperature (60°C), high humidity (25°C/92.5%RH), accelerated (40°C/75%RH), room temperature (25°C/60%RH), open.
Data set [4] in a line: Thermodynamic stability by competitive slurry, XRPD (Example 34). In kind it is physicochemical. The conditions noted are these: suspended in saturated acetonitrile or MTBE solution, equal amounts of form E and form AH, 6 days.
In a further data set the target is Tyk2 (Homo sapiens, UniProt P29597). The conditions noted are these: recorded in PCT/CN2021/134929; cited from earlier work.
[5] abbreviates: light not given in the conclusion.

Chain of Tyk2 (P29597 whole entry, species assumed): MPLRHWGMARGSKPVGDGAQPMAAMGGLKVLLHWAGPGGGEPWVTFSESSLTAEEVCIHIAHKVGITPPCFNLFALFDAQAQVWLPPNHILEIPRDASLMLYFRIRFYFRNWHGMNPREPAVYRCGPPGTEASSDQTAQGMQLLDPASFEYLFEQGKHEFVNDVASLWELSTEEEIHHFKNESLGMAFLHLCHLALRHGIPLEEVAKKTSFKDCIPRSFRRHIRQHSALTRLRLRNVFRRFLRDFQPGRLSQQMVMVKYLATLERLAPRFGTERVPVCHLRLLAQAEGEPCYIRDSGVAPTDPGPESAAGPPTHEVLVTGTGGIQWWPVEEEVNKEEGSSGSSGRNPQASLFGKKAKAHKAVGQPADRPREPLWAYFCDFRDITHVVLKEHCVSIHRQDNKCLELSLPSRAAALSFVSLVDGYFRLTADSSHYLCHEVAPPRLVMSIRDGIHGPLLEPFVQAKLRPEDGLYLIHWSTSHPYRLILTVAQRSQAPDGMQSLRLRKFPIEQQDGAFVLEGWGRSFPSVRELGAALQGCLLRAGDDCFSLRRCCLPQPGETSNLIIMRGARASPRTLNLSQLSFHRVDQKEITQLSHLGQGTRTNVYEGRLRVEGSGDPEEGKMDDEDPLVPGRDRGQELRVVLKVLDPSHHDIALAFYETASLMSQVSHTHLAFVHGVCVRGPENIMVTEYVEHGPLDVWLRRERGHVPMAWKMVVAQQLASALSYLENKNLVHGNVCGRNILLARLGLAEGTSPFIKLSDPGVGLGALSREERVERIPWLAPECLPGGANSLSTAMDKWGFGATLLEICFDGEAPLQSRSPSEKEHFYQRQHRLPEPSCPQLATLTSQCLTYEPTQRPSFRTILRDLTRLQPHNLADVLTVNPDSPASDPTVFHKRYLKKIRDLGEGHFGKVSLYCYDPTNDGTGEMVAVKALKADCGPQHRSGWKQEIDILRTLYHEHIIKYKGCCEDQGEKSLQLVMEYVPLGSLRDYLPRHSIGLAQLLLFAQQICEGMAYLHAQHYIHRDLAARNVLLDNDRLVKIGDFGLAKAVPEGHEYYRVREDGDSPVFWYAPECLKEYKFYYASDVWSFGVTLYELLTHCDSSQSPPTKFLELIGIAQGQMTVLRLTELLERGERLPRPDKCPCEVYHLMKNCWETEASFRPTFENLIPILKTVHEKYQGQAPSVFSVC

Take `CCONC(=O)c1cnc(Nc2cc(C)nc(C)n2)cc1Nc1cccc(-c2ncccn2)c1OC.O=C(O)CC(O)C(=O)O` [malic acid eutectic crystal form Type A]: the “crystalline transformation before and after the DVS test” value in data set [1] was “did not crystallize before and after the DVS test. type transformation”. Besides, the hygroscopicity entry in data set [2] was “slightly hygroscopic”. For the same compound, the stability result in data set [3] (setting [5]) is listed as “remains stable”.

As to `CCONC(=O)c1cnc(Nc2cc(C)nc(C)n2)cc1Nc1cccc(-c2ncccn2)c1OC.O=C(O)/C=C\C(=O)O` [maleate crystal form Type A], in data set [1], the “crystalline transformation before and after the DVS test” value was “does not undergo crystalline transformation”. Besides, the hygroscopicity result in data set [2] is on record as “extremely hygroscopic”. The stability entry in data set [3] (setting [5]) is “remains stable”.

In the case of `CCONC(=O)c1cnc(Nc2cc(C)nc(C)n2)cc1Nc1cccc(-c2ncccn2)c1OC.O=C(O)CC(O)(CC(=O)O)C(=O)O` [citric acid eutectic crystal form Type A], the “crystalline transformation before and after the DVS test” value in data set [1] was “did not crystallize before and after the DVS test. type transformation”. Besides, the hygroscopicity result in data set [2] is recorded as “almost no hygroscopicity”. For the same compound, in data set [3] (setting [5]), the stability result is on record as “remains stable”.

Regarding `CCONC(=O)c1cnc(Nc2cc(C)nc(C)n2)cc1Nc1cccc(-c2ncccn2)c1OC` [unsolvated crystalline form AH], the “crystalline transformation before and after the DVS test” value in data set [1] is on record as “did not undergo a crystalline transformation”. Also, the hygroscopicity result in data set [2] is listed as “has hygroscopicity”. In data set [3] (light (25°C/4500Lux)), the stability entry is recorded as “remains stable”.

For the compound `CCONC(=O)c1cnc(Nc2cc(C)nc(C)n2)cc1Nc1cccc(-c2ncccn2)c1OC` [unsolvated crystalline form E], in data set [4], the thermodynamic stability entry was “higher stability than Form AH”. Besides, the “crystalline transformation before and after the DVS test” value in data set [1] was “does not undergo a crystalline transformation”. Moreover, the hygroscopicity entry in data set [2] is given as “no hygroscopicity”. Further, in data set [3] (setting [5]), the stability entry is reported as “remains stable”.

Consider `CCONC(=O)c1cnc(Nc2cc(C)nc(C)n2)cc1Nc1cccc(-c2ncccn2)c1OC` [compound represented by formula (I), 6-(((2,6-二甲基嘧啶-4-基)氨基)-N-乙氧基-4-((2-甲氧基-3-(嘧啶-2-基)苯基)氨基)烟酰胺], for which the “Tyk2 selective inhibitory activity” value at Tyk2 is recorded as “excellent Tyk2 selective inhibitory activity”.
